Results taken from US20260013504A1, “HERBICIDAL MIXTURE, HERBICIDAL COMPOSITION, METHOD, USE, AND KITS FOR CONTROLLING UNDESIRABLE VEGETATION” (ADAMA AGAN LTD., priority 2022, published 2026).

Tests used:
Format in all cases: in vivo
Aegilops tauschii = experiment: Pot experiment, soil treatment, control of Aegilops tauschii (fresh weight, Colby); settings: mixtures: both AIs at these rates, after 35 days
From the text: (§1) Referring to an article of Colby, S. R. i.e., Calculation of the synergistic and antagonistic response of herbicide combinations.
E0 is the theoretical fresh weight survival rate for the mixture of pyroxasulfone and the second herbicide selected from the group consisting of fluorochloridone, aclonifen, diflufenican and terbutryn;
X is the measured fresh weight survival rate for pyroxasulfone used alone at the same dosage as that in the mixture;
Y is the measured fresh weight survival rate for the second herbicide selected from the group consisting of fluorochloridone, aclonifen, diflufenican and terbutryn used alone at the same dosage as that in the mixture;
E is the measured fresh weight survival rate for the mixture of pyroxasulfone and the second herbicide selected from the group consisting of fluorochloridone, aclonifen, diflufenican and terbutryn.
(§2) E0-E value is calculated to evaluate the combined effect of pyroxasulfone and the second herbicide selected from the group consisting of fluorochloridone, aclonifen, diflufenican and terbutryn on the selected weeds.
(§3) In this Example, the herbicidal activity of treatments by a mixture of pyroxasulfone and the second herbicide selected from the group consisting of fluorochloridone, aclonifen, diflufenican and terbutryn for controlling Aegilops tauschii was investigated by a pot experiment. This Example was carried out in accordance with “NY/T 1155.4-2006 Guidelines for Indoor Bioassay Tests of Pesticides, Herbicides Part 4: Activity Determination Tests, Stem and Leaf Spray Method”. • Source of the agrochemicals tested were: • Pyroxasulfone: pyroxasulfone (850g/Kg, WG) from Adama Agan LTD. • Fluorochloridone: fluorochloridone (250 g/L, EC) from Adama Agan LTD. • Aclonifen: aclonifen (600 g/L, SC) from Adama Agan LTD. • Diflufenican: diflufenican (50g/Kg, WP) from Bayer. • Terbutryn: terbutryn (50g/Kg, SC) from Zhejiang Zhongshan Chemical Industry Group Co., Ltd. • Cultivation of test materials: The test soil was formed by mixing the 20 cm layer loam on the ground surface and the culture medium in a ratio of 3:1 as cultivation soil. Weeds were cultivated in an artificial climate chamber. The daytime and nighttime temperatures were set at 22° C. and 19° C., respectively, and the illumination was set at daytime: dark time 12h: 12h.
(§4) A certain amount of Aegilops tauschii seeds were sown in a plastic pot with a diameter of 9 cm, covering with 1-2 mm soil, and putting them in an enamel dish filled with water. The bottom infiltration method was used to water them, the agrochemicals tested in this Example were applied on the second day after sowing Aegilops tauschii seeds.
(§5) Spraying treatment: ASS-4 automatic control spraying system with a fan-shaped nozzle was used indoors to spray the agrochemicals, the running speed was adjusted based on nozzle pressure, flow rate, etc. to spray 50 mL of liquid of agrochemicals on the actual spray area of 1.1 m2 (equivalent to 30 liters per mu), arranging the plastic pots to be processed on the spraying table evenly, and spraying evenly. The spraying pressure was 0.35 MPa, and the flow rate of the fan-shaped nozzle was 800 mL/min, spraying in order from low dosage to high dosage. Each treatment was repeated 3 times. After spraying, the plastic pots were dried for one day, placed in an artificial climate chamber, and watered regularly to keep moist.
(§6) Weed investigation method and time: after applying the agrochemicals, the symptoms of weed damage (such as growth inhibition, chlorosis, deformity, etc.) were recorded in detail. After 35 days, the fresh weight of aerial part of the weeds in each treatment was weighed, and the measured fresh weight inhibition rate and the measured fresh weight survival rate for each treatment were calculated according to the following equations: […]

Lolium multiflorum Lamk = experiment: Pot experiment, soil treatment, control of Lolium multiflorum Lamk (fresh weight, Colby); settings: mixtures: both AIs at these rates, after 35 days
Description: as §1, §2, §3, §4, §5, §6
Example 2 was conducted in substantially the same way as Example 1, except that Lolium multiflorum Lamk was used instead of Aegilops tauschii.

Bromus japonicus = experiment: Pot experiment, soil treatment, control of Bromus japonicus (fresh weight, Colby); settings: mixtures: both AIs at these rates, after 35 days
Description: as §1, §2, §3, §4, §5, §6
Example 3 was conducted in substantially the same way as Example 1, except that Bromus japonicus was used instead of Aegilops tauschii.

Galium aparine = experiment: Pot experiment, soil treatment, control of Galium aparine (fresh weight, Colby)
Description: as §1, §2, §3, §4, §5, §6
Example 4 was conducted substantially the same way as Example 1, except that Galium aparine was used instead of Aegilops tauschii.

Lithospermum arvense = experiment: Pot experiment, soil treatment, control of Lithospermum arvense (fresh weight, Colby)
Description: as §1, §2, §3, §4, §5, §6
Example 5 was conducted substantially the same way as Example 1, except that Lithospermum arvense was used instead of Aegilops tauschii.

Solanum nigrum = experiment: Pot experiment (glass greenhouse), soil treatment, control of Solanum nigrum (fresh weight, Colby)
Description: as §1, §2, §3, §4, §5, §6
Example 6 was substantially conducted in the same as Example 1, except that (1) Solanum nigrum was used instead of Aegilops tauschii, (2) in “Cultivation of test materials” part, Solanum nigrum was cultivated in a glass greenhouse instead of an artificial climate chamber at a temperature of 25 to 33° C. with a natural illumination, and (3) in “Spraying treatment” part, after spraying and drying, the plastic pots were placed in a glass greenhouse instead of an artificial climate chamber.

[1] = g ai/ha: pyroxasulfone 11.25, fluorochloridone 31.25, aclonifen 150, diflufenican 14.0625, terbutryn 140.625
[2] = g ai/ha: pyroxasulfone 22.5, fluorochloridone 62.5, aclonifen 300, diflufenican 28.125, terbutryn 281.25
[3] = g ai/ha: pyroxasulfone 45, fluorochloridone 125, aclonifen 600, diflufenican 56.25, terbutryn 562.5
[4] = g ai/ha: pyroxasulfone 90, fluorochloridone 250, aclonifen 1200, diflufenican 112.5, terbutryn 1125
[5] = g ai/ha: pyroxasulfone 180, fluorochloridone 500, aclonifen 2400, diflufenican 225, terbutryn 2250
[6] = g ai/ha: pyroxasulfone 360, fluorochloridone 1000, aclonifen 4800, diflufenican 450, terbutryn 4500

With `Nc1c([N+](=O)[O-])ccc(Oc2ccccc2)c1Cl` [aclonifen, 2-chloro-6-nitrio-3-phenoxyaniline] the “Measured fresh weight inhibition rate (%)” value (Aegilops tauschii; [1]) was 6.1%, the “Measured fresh weight survival rate (%) - E” value (Aegilops tauschii; [1]) was 93.9% and the “Measured fresh weight inhibition rate (%)” value (Aegilops tauschii; [2]) was 25.0%. For the same compound, the “Measured fresh weight survival rate (%) - E” value (Aegilops tauschii; [2]) was 75.0%, the “Measured fresh weight inhibition rate (%)” value (Aegilops tauschii; [3]) was 26.2% and the “Measured fresh weight survival rate (%) - E” value (Aegilops tauschii; [3]) was 73.8%. For the same compound, the “Measured fresh weight inhibition rate (%)” value (Aegilops tauschii; [4]) was 70.1%, the “Measured fresh weight survival rate (%) - E” value (Aegilops tauschii; [4]) was 29.9% and the “Measured fresh weight inhibition rate (%)” value (Aegilops tauschii; [5]) was 74.4%. For the same compound, the “Measured fresh weight survival rate (%) - E” value (Aegilops tauschii; [5]) was 25.6%, the “Measured fresh weight inhibition rate (%)” value (Aegilops tauschii; [6]) was 97.6% and the “Measured fresh weight survival rate (%) - E” value (Aegilops tauschii; [6]) was 2.4%. The “Measured fresh weight inhibition rate (%)” value (Lolium multiflorum Lamk; [1]) was 89.1%, the “Measured fresh weight survival rate (%) - E” value (Lolium multiflorum Lamk; [1]) was 10.9% and the “Measured fresh weight inhibition rate (%)” value (Lolium multiflorum Lamk; [2]) was 96.4%. For the same compound, the “Measured fresh weight survival rate (%) - E” value (Lolium multiflorum Lamk; [2]) was 3.6%, the “Measured fresh weight inhibition rate (%)” value (Lolium multiflorum Lamk; [3]) was 99.5% and the “Measured fresh weight survival rate (%) - E” value (Lolium multiflorum Lamk; [3]) was 0.5%. The “Measured fresh weight inhibition rate (%)” value (Lolium multiflorum Lamk; [4]) was 100.0%, the “Measured fresh weight survival rate (%) - E” value (Lolium multiflorum Lamk; [4]) was 0.0% and the “Measured fresh weight inhibition rate (%)” value (Lolium multiflorum Lamk; [5]) was 100.0%. The “Measured fresh weight survival rate (%) - E” value (Lolium multiflorum Lamk; [5]) was 0.0%, the “Measured fresh weight inhibition rate (%)” value (Lolium multiflorum Lamk; [6]) was 100.0% and the “Measured fresh weight survival rate (%) - E” value (Lolium multiflorum Lamk; [6]) was 0.0%. For the same compound, the “Measured fresh weight inhibition rate (%)” value (Bromus japonicus; [1]) was 45.4%, the “Measured fresh weight survival rate (%) - E” value (Bromus japonicus; [1]) was 54.6% and the “Measured fresh weight inhibition rate (%)” value (Bromus japonicus; [2]) was 86.6%. For the same compound, the “Measured fresh weight survival rate (%) - E” value (Bromus japonicus; [2]) was 13.4%, the “Measured fresh weight inhibition rate (%)” value (Bromus japonicus; [3]) was 100.0% and the “Measured fresh weight survival rate (%) - E” value (Bromus japonicus; [3]) was 0.0%. The “Measured fresh weight inhibition rate (%)” value (Bromus japonicus; [4]) was 100.0%, the “Measured fresh weight survival rate (%) - E” value (Bromus japonicus; [4]) was 0.0% and the “Measured fresh weight inhibition rate (%)” value (Bromus japonicus; [5]) was 100.0%. The “Measured fresh weight survival rate (%) - E” value (Bromus japonicus; [5]) was 0.0%, the “Measured fresh weight survival rate (%) - E” value (Galium aparine; 150 g ai/ha) was 79.5% and the “Measured fresh weight survival rate (%) - E” value (Galium aparine; 300 g ai/ha) was 63.0%. The “Measured fresh weight survival rate (%) - E” value (Galium aparine; 600 g ai/ha) was 9.6%, the “Measured fresh weight survival rate (%) - E” value (Galium aparine; 1200 g ai/ha) was 0.0% and the “Measured fresh weight survival rate (%) - E” value (Galium aparine; 2400 g ai/ha) was 0.0%. The inhibition at 150 g/ha (Galium aparine; Galium aparine, soil, 150 g ai/ha, read-out: Measured fresh weight inhibition rate (%)) was 20.5%, the inhibition at 300 g/ha (Galium aparine; Galium aparine, soil, 300 g ai/ha, read-out: Measured fresh weight inhibition rate (%)) was 37% and the inhibition at 600 g/ha (Galium aparine; Galium aparine, soil, 600 g ai/ha, read-out: Measured fresh weight inhibition rate (%)) was 90.4%. For the same compound, the inhibition at 1200 g/ha (Galium aparine; Galium aparine, soil, 1200 g ai/ha, read-out: Measured fresh weight inhibition rate (%)) was 100%, the inhibition at 2400 g/ha (Galium aparine; Galium aparine, soil, 2400 g ai/ha, read-out: Measured fresh weight inhibition rate (%)) was 100% and the “Measured fresh weight survival rate (%) - E” value (Lithospermum arvense; 150 g ai/ha) was 43.5%. The “Measured fresh weight survival rate (%) - E” value (Lithospermum arvense; 300 g ai/ha) was 13.0%, the “Measured fresh weight survival rate (%) - E” value (Lithospermum arvense; 600 g ai/ha) was 1.4% and the “Measured fresh weight survival rate (%) - E” value (Lithospermum arvense; 1200 g ai/ha) was 0.0%. The “Measured fresh weight survival rate (%) - E” value (Lithospermum arvense; 2400 g ai/ha) was 0.0%, the inhibition at 150 g/ha (Lithospermum arvense; Buglossoides arvensis, soil, 150 g ai/ha, read-out: Measured fresh weight inhibition rate (%)) was 56.5% and the inhibition at 300 g/ha (Lithospermum arvense; Buglossoides arvensis, soil, 300 g ai/ha, read-out: Measured fresh weight inhibition rate (%)) was 87%. The inhibition at 600 g/ha (Lithospermum arvense; Buglossoides arvensis, soil, 600 g ai/ha, read-out: Measured fresh weight inhibition rate (%)) was 98.6%, the inhibition at 1200 g/ha (Lithospermum arvense; Buglossoides arvensis, soil, 1200 g ai/ha, read-out: Measured fresh weight inhibition rate (%)) was 100% and the inhibition at 2400 g/ha (Lithospermum arvense; Buglossoides arvensis, soil, 2400 g ai/ha, read-out: Measured fresh weight inhibition rate (%)) was 100%. For the same compound, the “Measured fresh weight survival rate (%) - E” value (Solanum nigrum; 150 g ai/ha) was 87.1%, the “Measured fresh weight survival rate (%) - E” value (Solanum nigrum; 300 g ai/ha) was 82.7% and the “Measured fresh weight survival rate (%) - E” value (Solanum nigrum; 600 g ai/ha) was 69.4%. For the same compound, the “Measured fresh weight survival rate (%) - E” value (Solanum nigrum; 1200 g ai/ha) was 56.9%, the “Measured fresh weight survival rate (%) - E” value (Solanum nigrum; 2400 g ai/ha) was 26.3% and the inhibition at 150 g/ha (Solanum nigrum; Solanum nigrum, soil, 150 g ai/ha, read-out: Measured fresh weight inhibition rate (%)) was 12.9%. For the same compound, the inhibition at 300 g/ha (Solanum nigrum; Solanum nigrum, soil, 300 g ai/ha, read-out: Measured fresh weight inhibition rate (%)) was 17.3%, the inhibition at 600 g/ha (Solanum nigrum; Solanum nigrum, soil, 600 g ai/ha, read-out: Measured fresh weight inhibition rate (%)) was 30.6% and the inhibition at 1200 g/ha (Solanum nigrum; Solanum nigrum, soil, 1200 g ai/ha, read-out: Measured fresh weight inhibition rate (%)) was 43.1%. The inhibition at 2400 g/ha (Solanum nigrum; Solanum nigrum, soil, 2400 g ai/ha, read-out: Measured fresh weight inhibition rate (%)) was 73.7%.
